The text below walks through data of patent US12428405B2, “Chalcone-based chemotherapeutic compound for triple negative breast cancer” (QATAR UNIVERSITY, priority 2019, dated 2025).

Broadly, the IC50 is the concentration that gives 50% inhibition.

One experiment concerns MCF-7. Nature of the experiment: Soft agar colony formation assay. The experiment is classed as cell-based. As to conditions: MCF-7; soft agar.
For experiment [1], the system named is Epithelial Mesenchymal Transition (EMT) markers in MDA-MB-231 cells. Description: Western blot of EMT markers. The experiment is classed as cell-based. As to conditions: cell line not named in the sentence (FIG. 3.24, FIG. 3.25). As for the experimental part:
Proteins were quantified with the Pierce BCA Protein Assay Kit (Thermo Scientific, USA) following cell lysis. SDS-PAGE was prepared at a concentration of 10% for all studied proteins. All samples were loaded at 40 μg per 1.5 mm 15 wells comb. Running of stained samples was performed using two steps gel electrophoresis (60 Volts for 20 minutes followed by 120 Volts for 1 hour). Afterwards, gels were transferred into PVDF membrane at 100 Voltage for 1.5-2.0 hours using wet transfer. Following transfer, PVDF membranes were blocked with 5% skimmed milk and washed three times. Primary antibodies (Table 2.2) were prepared, then PVDF membrane were incubated with them overnight with gentle shaking at 4° C. Afterwards, membranes were washed three times and incubated with their respective secondary antibodies for 1-2 hours with gentle shaking at room temperature. Pierce™ ECL Western Blotting Substrate was used to detect proteins by chemiluminescence. Blots were imaged using the ibrightCL1000 imaging system.
A general note: Immunoblotting shows a protein as a band on a membrane.

For experiment [2], the system named is MDA-MB-231. Description: Migration (wound healing) assay. As to conditions: for activity at 5 µM: read-out: % migration; for IC50: 24 hours of treatment, 5 concentrations, two independent experiments, read-out: Migratory IC50 MDA-MB-231. The experiment is classed as cell-based. Here is the method: MDA-MB-231 cells were seeded in 12-wells plates at a concentration of 500,000 cells/well and were incubated in complete RPMI culture medium until covering the well and reaching around 90-100% confluency. Following, cells were serum starved for 4 hours and a 200 μl pipette tip was used to create the scratch followed by cell washing with PBS twice. […] Microscopic pictures were then taken, and cell migration was quantified based on the wound diameter at 24 hours minus the initial diameter at time zero, as represented by the following equation: % Migration=[…]

Experiment [3] relates to MDA-MB-231. Nature of the experiment: Soft agar colony formation assay. Type of experiment: cell-based. As to conditions: MDA-MB-231; soft agar.
For a further experiment, the system named is MDA-MB-468. Description: Soft agar colony formation assay. The experiment is classed as cell-based. As to conditions: MDA-MB-468; soft agar.
Experiment [4] relates to MDA-MB-231. Nature of the experiment: Cell cycle analysis (flow cytometry). As to conditions: 10 μM, 48 hours post treatment; N=1. Type of experiment: cell-based. Here is the method:
The MDA-MB-231, MDA-MB-468 and MCF-7 cell lines were seeded on 6-well plates at a concentration of 200,000 cells per well and were maintained in culture supplemented with 10% fetal bovine serum for 8-10 hours. The same day, media was removed and cells were incubated overnight with serum free media. Second day, cells were treated with the compounds. Adherent and floating cell populations were harvested at 48 hours after treatment with different concentrations of the compounds and counted.
Afterward, cells were washed with cold PBS once, centrifuged at 4° C. and fixed with 1.5 ml cold 70% ethanol added drop wise while slowly vortexing. Samples were then stored at […] Following fixation, cells were pelleted and washed with ice-cold PBS. Equal aliquots were collected and resuspended in 300 μl of Tali® Cell Cycle Kit and incubated at 37 C. with slow shaking speed for 30 minutes in the dark. Accuri C6 flow cytometer (BD Biosciences, USA) was used to analyze the cells. The FlowJo V10 software was used to process and evaluate the results.

Experiment [5] has as its system Chorioallantoic membrane (CAM) of the chicken embryos. Description: Chorioallantoic membrane (CAM) angiogenesis assay. As to conditions: treated at embryonic day 4, read at day 8; 2 μl of 5 mM stock under coverslip. Type of experiment: in vivo. As for the experimental part:
Fertilized white Leghorn chicken embryos (Arab Qatari for Poultry Production, Qatar) were purchased and incubated at 60% humidity at 37° C. in MultiQuip incubator. Ethics approval was obtained from Qatar University-Institutional Bio-safety committee. The embryos were treated in ovo at embryonic day 4 with three of the synthesized chalcones (5, 13 and 14) compared to DMSO treated controls. Briefly, a small cut was made at the top of the shells of the eggs and each treatment was added under a round coverslip at 2 μl of 5 mM stock solutions. Microscopic pictures were taken at embryonic day 8. Embryos treated with compounds 13 and 14 were sacrificed at embryonic day 9 for clinical observations. Quantification of blood vessels was performed manually and the different treatment groups were compared.

Where [6] appears, read: Homo sapiens, MDA-MB-231, 5 μM, 24 hours post treatment, control = 100, Mean ± SEM (N = 2 × 2).

Where two headings read alike, the source gives them in different places.

`COc1cc2c(c(OC)c1OC)-c1ccc(OC)c(=O)cc1[C@@H](NC(C)=O)CC2` [Colchicine, reference compound]: the “colony formation (in words)” value in the experiment with MCF-7, with MDA-MB-231 [3] and in the experiment on MDA-MB-468 was “significantly inhibited the ability of cells to form colonies” in each case. The “expression of β-catenin and its phosphorylated form” value in experiment [1] was “upregulated phospho-3-catenin”. In the experiment with MDA-MB-231 [2] (Homo sapiens, MDA-MB-231, 24 h), the activity at 5 µM is 47.45 ± 0.25%.

On to `O=C(/C=C/c1ccc(N2CCCC2)cc1)c1cccc(Cl)c1` [Compound 1, (E)-1-(3-chlorophenyl)-3-(4-(pyrrolidin-1-yl)phenyl) prop-2-en-1-one], for which the activity at 5 µM in the experiment with MDA-MB-231 [2] (setting [6]) worked out at 74.7 ± 5.8%.

For the compound `CS(=O)(=O)c1ccc(C(=O)/C=C/c2ccc(N3CCCC3)cc2)cc1` [Compound 2, (E)-1-(4-(methylsulfonyl)phenyl)-3-(4-(pyrrolidin-1-yl)phenyl) prop-2-en-1-one], the “cell cycle shifts (in words)” value with MDA-MB-231 [4] is reported as “slight S phase arrest”. In addition, in the experiment with MDA-MB-231 [2] (setting [6]), the activity at 5 µM stood at 67.3 ± 53.9%.

Consider `CS(=O)(=O)c1ccc(C(=O)/C=C/c2ccc(N3CCOCC3)cc2)cc1` [Compound 3, (E)-1-(4-(methylsulfonyl)phenyl)-3-(4-morpholinophenyl) prop-2-en-1-one], for which, in the experiment with MDA-MB-231 [2] (setting [6]), the activity at 5 µM was determined as 65.7 ± 52.4%.

For `CS(=O)(=O)c1ccc(C(=O)/C=C/c2ccc(N3CCCCC3)cc2)cc1` [Compound 4, (E)-1-(4-(methylsulfonyl)phenyl)-3-(4-(piperidin-1-yl)phenyl) prop-2-en-1-one], in the experiment with MDA-MB-231 [2] (setting [6]), the activity at 5 µM was found to be 70.7 ± 55.9%.

As to `CSc1ccc(C(=O)/C=C/c2ccc(N3CCOCC3)cc2)cc1` [Compound 5, (E)-1-(4-(methylthio)phenyl)-3-(4-morpholinophenyl) prop-2-en-1-one], the “cell cycle shifts (in words)” value in the experiment on MDA-MB-231 [4] is on record as “no major cell cycle shifts”. In addition, in experiment [5], the “inhibition of blood vessels development vs control” value is 68.49±4.42%. In addition, the activity at 5 µM with MDA-MB-231 [2] (setting [6]) came out at 64.3 ± 3.32%. Also, in the experiment with MDA-MB-231 [2] (Homo sapiens, MDA-MB-231), the IC50 is 6.14 ± 0.62 µM.

On to `CSc1ccc(C(=O)/C=C/c2ccc(N3CCCCC3)cc2)cc1` [Compound 6, (E)-1-(4-(methylthio)phenyl)-3-(4-(piperidin-1-yl)phenyl) prop-2-en-1-one], for which the activity at 5 µM in the experiment with MDA-MB-231 [2] (setting [6]) turned out to be 69.5 ± 3.92%.

As to `CSc1ccc(C(=O)/C=C/c2ccc(N3CCCC3)cc2)cc1` [Compound 7, (E)-1-(4-(methylthio)phenyl)-3-(4-(pyrrolidin-1-yl)phenyl) prop-2-en-1-one], the activity at 5 µM with MDA-MB-231 [2] (setting [6]) came out at 71.8 ± 0.06%.

For the compound `COc1cccc(C(=O)/C=C/c2ccc(N3CCCC3)cc2)c1` [Compound 8, (E)-1-(3-methoxyphenyl)-3-(4-(pyrrolidin-1-yl)phenyl) prop-2-en-1-one], in the experiment on MDA-MB-231 [2] (setting [6]), the activity at 5 µM worked out at 48.7 ± 2.85%. In addition, the IC50 in the experiment on MDA-MB-231 [2] (Homo sapiens, MDA-MB-231) turned out to be 3 ± 0.46 µM.

For the compound `COc1cccc(C(=O)/C=C/c2ccc(N3CCCCC3)cc2)c1` [Compound 9, (E)-1-(3-methoxyphenyl)-3-(4-(piperidin-1-yl)phenyl)prop-2-en-1-one], the “cell cycle shifts (in words)” value in the experiment on MDA-MB-231 [4] was “no major cell cycle shifts”. For the same compound, the activity at 5 µM in the experiment with MDA-MB-231 [2] (setting [6]) came to 75 ± 0.86%.

Take `O=C(/C=C/c1ccc(N2CCCC2)cc1)c1ccc2c(c1)OCO2` [Compound 10, (E)-1-(benzo[d][1,3]dioxol-5-yl)-3-(4-(pyrrolidin-1-yl)phenyl)prop-2-en-1-one]: the activity at 5 µM with MDA-MB-231 [2] (setting [6]) is 53.5 ± 5.98%. Moreover, the IC50 in the experiment on MDA-MB-231 [2] (Homo sapiens, MDA-MB-231) was determined as 4.8 ± 0.72 µM.

Take `O=C(/C=C/c1ccc(N2CCOCC2)cc1)c1ccc(N2CCNCC2)cc1` [Compound 11, (E)-3-(4-morpholinophenyl)-1-(4-(piperazin-1-yl)phenyl) prop-2-en-1-one]: the activity at 5 µM with MDA-MB-231 [2] (setting [6]) came out at 75.1 ± 0.86%.

For the compound `COc1ccccc1C(=O)/C=C/c1ccc(N(CCCl)CCCl)cc1` [Compound 12, (E)-3-(4-(Bis(2-chloroethyl)amino)phenyl)-1-(2-methoxyphenyl) prop-2-en-1-one], the IC50 in the experiment on MDA-MB-231 [2] worked out at 1.99 ± 0.19 µM; in the experiment with MDA-MB-231 [2] (Homo sapiens, MDA-MB-231, 24 h), 2 ± 0.189 µM. Besides, the activity at 5 µM in the experiment with MDA-MB-231 [2] (setting [6]) is 32.8 ± 0.68%.

With `CC(=O)O[C@H]1C(=O)[C@@]2(C)[C@H]([C@H](OC(=O)c3ccccc3)[C@]3(O)C[C@H](OC(=O)[C@H](O)[C@@H](NC(=O)c4ccccc4)c4ccccc4)C(C)=C1C3(C)C)[C@]1(OC(C)=O)CO[C@@H]1C[C@@H]2O` [Paclitaxel, reference compound], the “colony formation (in words)” value with MCF-7, in the experiment on MDA-MB-231 [3] and in the experiment on MDA-MB-468 was “significantly inhibited the ability of cells to form colonies” each time. Besides, in the experiment with MDA-MB-231 [2] (setting [6]), the activity at 5 µM was found to be 39.3 ± 5.16%. Besides, the IC50 in the experiment on MDA-MB-231 [2] (Homo sapiens, MDA-MB-231) turned out to be 2.01 ± 0.22 µM.
